These molecules were tested on CAN97-83-GFP1 (A2a) hMPV in H1-HeLa cells (assay: hMPV H1-Hela EC50, anti-nucleoprotein ELISA (Example X)). Conditions: human metapneumovirus, 96 h, read-out: hMPV H1-Hela EC50 (nM) (per Ex. X).
Format: cell-based
Description: The human metapneumoavirus (hMPV) anti-viral assay is an anti-nucleoprotein ELISA performed in infected H1-HeLa cells. H1-HeLa cells were maintained in Dulbecco's Modified Eagle's Medium with high glucose (Gibco, Cat #: 11995073) supplemented with 10% FBS (HyClone, Cat #: SH303396.03), 100 units/mL penicillin and 100 μg/mL streptomycin (Gibco, Cat #: 15140122). One day before infection, H1-HeLa cells were seeded into 96-well plates (Corning, Cat. #: 3903) at 0.1 mL/well at 1.5×10^5 cells/mL in Opti-MEM (Gibco, Cat #: 31985070) supplemented with 2% FBS, and were incubated at 37° C. in a 100% humid atmosphere containing 5% (v/v) CO2 overnight. On the next day, CAN97-83-GFP1 (A2a) hMPV was diluted in Opti-MEM medium containing 200 μg/mL CaCl2) and 2 μg/mL TPCK treated trypsin and distributed to the 96-well plates at 0.1 mL/well for an MOI=0.1. Test compounds were distributed to each well using a HP D300e digital dispenser with a final volume of 200 µL/well. After the plates were centrifuged at 700 g for one hour at room temperature, they were maintained in a humidified chamber at 37-C with 5% (v/v) CO2 for 96 hours. After the incubation, the medium was removed, and the plates were fixed with 0.1 mL/well 1% formaldehyde for 15 min at room temperature. The fixative was removed, the plates were air dried for 30-60 minutes, and then permeabilized with 0.1 mL/well 0.5% Triton X-100 in PBS for five minutes at room temperature. Following permeabilization, the plates were washed once with 0.1 mL/well blocking buffer consisting of 10% FBS (HyClone, Cat #: SH303396.03), 5% dry milk (AmericanBio, Cat #: AB10109-01000), and 0.1% Tween 20 (EMD Millipore, Cat #655204) in PBS. The plates were blocked with 0.1 mL/well blocking buffer for 60 minutes at 37° C. afterward. The blocking buffer was removed and 0.05 mL/well human metapneumovirus nucleocapsid antibody (Sigma, Cat #MAB80121) diluted 1:500 in Blocking buffer was added and incubated for two hours at 37-C. The plates were then washed with 0.2 mL/well 0.1% Tween 20/PBS five times, followed by addition of 0.05 mL/well of horseradish peroxidase (HRP) conjugated goat anti-mouse IgG antibody (Fisher Scientific, Cat #501077607) at 1:2000 dilution in the blocking buffer. After one-hour incubation at 37-C, plates were washed five times with 0.2 mL/well 0.1% tween 20 in PBS. The HRP signals were developed by adding 0.1 mL/well of TMB reagent (Thermo Scientific, Cat #: ENN301) and incubating at room until the positive control was apparent. At that point, the reaction was stopped by adding 0.1 mL/well TMB stop solution (SeraCare, Cat #: 5150-0021). The absorbance was measured at 450 nm with an EnVision plate reader. The relative absorbance was calculated by normalizing the absorbance of the compound-treated groups to that of the DMSO-treated groups (set as 100%). EC50 values were calculated using a nonlinear four parameter variable slope regression model.
With `CCCCCCCCCCCCCCCCCCOC[C@@H](COP(=O)(O)OC[C@@]1(C#N)O[C@@H](c2ccc3c(N)ncnn23)[C@H](O)[C@@H]1O)Oc1ccc(C#N)nc1` [Compound 72, ((2R,3S,4R,5S)-5-(4-aminopyrrolo[2,1-f][1,2,4]triazin-7-yl)-2-cyano-3,4-dihydroxytetrahydrofuran-2-yl)methyl ((S)-2-((6-cyanopyridin-3-yl)oxy)-3-(octadecyloxy)propyl) hydrogen phosphate] the EC50 was 70 nM. In the case of `CCCCCCCCCCCCCCCCCCC[C@H](COP(=O)(O)OC[C@@]1(C#N)O[C@@H](c2ccc3c(N)ncnn23)[C@H](O)[C@@H]1O)Oc1ccc(C#N)c(OC(C)C)c1` [Compound 38, ((2R,3S,4R,5S)-5-(4-aminopyrrolo[2,1-f][1,2,4]triazin-7-yl)-2-cyano-3,4-dihydroxytetrahydrofuran-2-yl)methyl ((R)-2-(4-cyano-3-isopropoxyphenoxy)henicosyl) hydrogen phosphate], the EC50 is reported as 137 nM. `CCCCCCCCCCCCCCCCCCOCC(COc1cc(F)cc(C#N)c1)COP(=O)(O)OC[C@@]1(C#N)O[C@@H](c2ccc3c(N)ncnn23)[C@H](O)[C@@H]1O` (stereo partly drawn) [Compound 43, ((2R,3S,4R,5S)-5-(4-aminopyrrolo[2,1-f][1,2,4]triazin-7-yl)-2-cyano-3,4-dihydroxytetrahydrofuran-2-yl)methyl (3-(3-cyano-5-fluorophenoxy)-2-((octadecyloxy)methyl)propyl) hydrogen phosphate] showed an EC50 of 901 nM. Work on `CCCCCCCCCCCCCCCCCCC[C@H](COP(=O)(O)OC[C@@]1(C#N)O[C@@H](c2ccc3c(N)ncnn23)[C@H](O)[C@@H]1O)OCc1cc(Cl)cc(C#N)c1` [Compound 82, ((2R,3S,4R,5S)-5-(4-aminopyrrolo[2,1-f][1,2,4]triazin-7-yl)-2-cyano-3,4-dihydroxytetrahydrofuran-2-yl)methyl ((R)-2-((3-chloro-5-cyanobenzyl)oxy)henicosyl) hydrogen phosphate] yielded an EC50 of 1120 nM. Work on `CCCCCCCCCCCCCCCCCCC[C@H](COP(=O)(O)OC[C@@]1(C#N)O[C@@H](c2ccc3c(N)ncnn23)[C@H](O)[C@@H]1O)OCc1cc(F)cc(C#N)c1` [Compound 25, ((2R,3S,4R,5S)-5-(4-aminopyrrolo[2,1-f][1,2,4]triazin-7-yl)-2-cyano-3,4-dihydroxytetrahydrofuran-2-yl)methyl ((R)-2-((3-cyano-5-fluorobenzyl)oxy)henicosyl) hydrogen phosphate] yielded an EC50 of 1280 nM. `CCCCCCCCCCCCCCCCCCCC[C@H](COP(=O)(O)OC[C@@]1(C#N)O[C@@H](c2ccc3c(N)ncnn23)[C@H](O)[C@@H]1O)OCc1cc(F)cc(C#N)c1` [Compound 34, ((2R,3S,4R)-5-(4-aminopyrrolo[2,1-f][1,2,4]triazin-7-yl)-2-cyano-3,4-dihydroxytetrahydrofuran-2-yl)methyl ((R)-2-((3-cyano-5-fluorobenzyl)oxy)docosyl) hydrogen phosphate] was tested, and the EC50 was 646 nM. In the case of `CCCCCCCCCCCCCCCCCCOC[C@H](COP(=O)(O)OC[C@@]1(C#N)O[C@@H](c2ccc3c(N)ncnn23)[C@H](O)[C@@H]1O)Oc1ccc(C#N)c(OC(C)C)c1` [Compound 23, ((2R,3S,4R,5S)-5-(4-aminopyrrolo[2,1-f][1,2,4]triazin-7-yl)-2-cyano-3,4-dihydroxytetrahydrofuran-2-yl)methyl ((R)-2-(4-cyano-3-isopropoxyphenoxy)-3-(octadecyloxy)propyl) hydrogen phosphate], the EC50 is reported as 156 nM. `CCCCCCCCCCCCCCCCOC[C@@H](COP(=O)(O)OC[C@@]1(C#N)O[C@@H](c2ccc3c(N)ncnn23)[C@H](O)[C@@H]1O)OCc1cc(F)cc(C#N)c1` [Compound 88, ((2R,3S,4R,5S)-5-(4-aminopyrrolo[2,1-f][1,2,4]triazin-7-yl)-2-cyano-3,4-dihydroxytetrahydrofuran-2-yl)methyl ((S)-2-((3-cyano-5-fluorobenzyl)oxy)-3-(hexadecyloxy)propyl) hydrogen phosphate] was tested, and the EC50 was 348 nM. `CCCCCCCCCCCCCCCCCCC[C@H](COP(=O)(O)OC[C@@]1(C#N)O[C@@H](c2ccc3c(N)ncnn23)[C@H](O)[C@@H]1O)OCc1ccc(C#N)c(OC(C)C)c1` [Compound 28, ((2R,3S,4R,5S)-5-(4-aminopyrrolo[2,1-f][1,2,4]triazin-7-yl)-2-cyano-3,4-dihydroxytetrahydrofuran-2-yl)methyl ((R)-2-((4-cyano-3-isopropoxybenzyl)oxy)henicosyl) hydrogen phosphate] gave an EC50 of 625 nM. In the case of `CCCCCCCCCCCCCCCCCC[C@H](COP(=O)(O)OC[C@@]1(C#N)O[C@@H](c2ccc3c(N)ncnn23)[C@H](O)[C@@H]1O)OCc1cc(F)cc(C#N)c1` [Compound 84, ((2R,3S,4R,5S)-5-(4-aminopyrrolo[2,1-f][1,2,4]triazin-7-yl)-2-cyano-3,4-dihydroxytetrahydrofuran-2-yl)methyl ((R)-2-((3-cyano-5-fluorobenzyl)oxy)icosyl) hydrogen phosphate], the EC50 is reported as 367 nM. Molecule `CCCCCCCCCCCCCCCC[C@@H](COP(=O)(O)OC[C@@]1(C#N)O[C@@H](c2ccc3c(N)ncnn23)[C@H](O)[C@@H]1O)OCc1cc(F)cc(C#N)c1` [Compound 79, ((2R,3S,4R,5S)-5-(4-aminopyrrolo[2,1-f][1,2,4]triazin-7-yl)-2-cyano-3,4-dihydroxytetrahydrofuran-2-yl)methyl ((S)-2-((3-cyano-5-fluorobenzyl)oxy)octadecyl) hydrogen phosphate] has an EC50 of 1610 nM. `CCCCCCCCCCCCCCC[C@H](COP(=O)(O)OC[C@@]1(C#N)O[C@@H](c2ccc3c(N)ncnn23)[C@H](O)[C@@H]1O)OCc1cc(F)cc(C#N)c1` [Compound 80, ((2R,3S,4R,5S)-5-(4-aminopyrrolo[2,1-f][1,2,4]triazin-7-yl)-2-cyano-3,4-dihydroxytetrahydrofuran-2-yl)methyl ((R)-2-((3-cyano-5-fluorobenzyl)oxy)heptadecyl) hydrogen phosphate] gave an EC50 of 668 nM. `CCCCCCCCCCCCCCCCCCOC[C@H](COP(=O)(O)OC[C@@]1(C#N)O[C@@H](c2ccc3c(N)ncnn23)[C@H](O)[C@@H]1O)OCc1cc(F)cc(C#N)c1` [Compound 1, ((2R,3S,4R,5S)-5-(4-aminopyrrolo[2,1-f][1,2,4]triazin-7-yl)-2-cyano-3,4-dihydroxytetrahydrofuran-2-yl)methyl ((R)-2-((3-cyano-5-fluorobenzyl)oxy)-3-(octadecyloxy)propyl) hydrogen phosphate] was tested, and the EC50 was 440 nM. With `CCCCCCCCCCCCCCCCCCC[C@H](COP(=O)(O)OC[C@@]1(C#N)O[C@@H](c2ccc3c(N)ncnn23)[C@H](O)[C@@H]1O)OCc1ccc(-n2cncn2)c(C#N)c1` [Compound 30, ((2R,3S,4R)-5-(4-aminopyrrolo[2,1-f][1,2,4]triazin-7-yl)-2-cyano-3,4-dihydroxytetrahydrofuran-2-yl)methyl ((R)-2-((3-cyano-4-(1H-1,2,4-triazol-1-yl)benzyl)oxy)henicosyl) hydrogen phosphate] the EC50 was 188 nM. Work on `CCCCCCCCCCCCCCCCC[C@H](COP(=O)(O)OC[C@@]1(C#N)O[C@@H](c2ccc3c(N)ncnn23)[C@H](O)[C@@H]1O)OCc1cc(Cl)cc(C#N)c1` [Compound 76, ((2R,3S,4R)-5-(4-aminopyrrolo[2,1-f][1,2,4]triazin-7-yl)-2-cyano-3,4-dihydroxytetrahydrofuran-2-yl)methyl ((R)-2-((3-chloro-5-cyanobenzyl)oxy)nonadecyl) hydrogen phosphate] yielded an EC50 of 517 nM. In the case of `CCCCCCCCCCCCCCCCCC[C@H](COP(=O)(O)OC[C@@]1(C#N)O[C@@H](c2ccc3c(N)ncnn23)[C@H](O)[C@@H]1O)OCc1cc(Cl)cc(C#N)c1` [Compound 81, ((2R,3S,4R,5S)-5-(4-aminopyrrolo[2,1-f][1,2,4]triazin-7-yl)-2-cyano-3,4-dihydroxytetrahydrofuran-2-yl)methyl ((R)-2-((3-chloro-5-cyanobenzyl)oxy)icosyl) hydrogen phosphate], the EC50 is reported as 453 nM.
